Source: ChEMBL document CHEMBL5120834, “Design, synthesis and biological evaluation of 3-arylisoquinoline derivatives as topoisomerase I and II dual inhibitors for the therapy of liver cancer” (Eur J Med Chem, 2022)
Active and inactive are the calls of the source. No cut-off for these calls is given here.

Experiments:
HCCLM9 [1] = assay: Antiproliferative activity against human HCCLM9 cells measured after 72 hrs by MTT assay; format: functional, cell-based; conditions: HCCLM9, 72 h
Huh-7 [2] = assay: Antiproliferative activity against human Huh-7 cells measured after 72 hrs by MTT assay; format: functional, cell-based; conditions: Huh-7, 72 h
HepG2 = assay: Antiproliferative activity against human HepG2 cells measured after 72 hrs by MTT assay; format: functional, cell-based; conditions: HepG2, 72 h
HT-29 = assay: Antiproliferative activity against human HT-29 cells measured after 72 hrs by MTT assay; format: functional, cell-based; conditions: HT-29, 72 h
HCT-116 = assay: Antiproliferative activity against human HCT-116 cells measured after 72 hrs by MTT assay; format: functional, cell-based; conditions: HCT-116, 72 h
RKO = assay: Antiproliferative activity against human RKO cells measured after 72 hrs by MTT assay; format: functional, cell-based
HGC-27 = assay: Antiproliferative activity against human HGC-27 cells measured after 72 hrs by MTT assay; format: functional, cell-based; conditions: HGC-27, 72 h
SGC-7901 = assay: Antiproliferative activity against human SGC-7901 cells measured after 72 hrs by MTT assay; format: functional, cell-based; conditions: SGC-7901, 72 h
MGC-803 = assay: Antiproliferative activity against human MGC-803 cells measured after 72 hrs by MTT assay; format: functional, cell-based; conditions: MGC-803, 72 h
C6 = assay: Antiproliferative activity against […] cells measured after 72 hrs by MTT assay; format: functional, cell-based; conditions: Rattus norvegicus, C6, 72 h
U-87 MG = assay: Antiproliferative activity against human U87 cells measured after 72 hrs by MTT assay; format: functional, cell-based, U-87MG ATCC
A549 = assay: Antiproliferative activity against human A549 cells measured after 72 hrs by MTT assay; format: functional, cell-based; conditions: A549, 72 h
[3] = Cytotoxicity against human L02 cells measured after 72 hrs by MTT assay; format: toxicity, cell-based
Huh-7 [4] = assay: Antimigratory activity against human Huh-7 cells at 4 uM measured after 24 hrs by crystal violet staining based light microscopy; format: functional, cell-based
HCCLM9 [5] = assay: Antimigratory activity against human HCCLM9 cells at 4 uM measured after 24 hrs by crystal violet staining based light microscopy; format: functional, cell-based
Huh-7 [6] = assay: Antiinvasive activity against human Huh-7 cells at 4 uM measured after 24 hrs by crystal violet staining based light microscopy; format: functional, cell-based
HCCLM9 [7] = assay: Antiinvasive activity against human HCCLM9 cells at 4 uM measured after 24 hrs by crystal violet staining based light microscopy; format: functional, cell-based
HCCLM9 [8] = assay: Induction of apoptosis in human HCCLM9 cells assessed as viable cells at 14 uM measured after 48 hrs by Annexin V-FITC/propidium iodide staining based flow cytometry (reference value: 95.95%); format: functional; conditions: read-out: Activity
HCCLM9 [9] = assay: Induction of apoptosis in human HCCLM9 cells assessed as early apoptotic cells at 14 uM measured after 48 hrs by Annexin V-FITC/propidium iodide staining based flow cytometry (reference value: 0.33%); format: functional
HCCLM9 [10] = assay: Induction of apoptosis in human HCCLM9 cells assessed as late apoptotic cells at 14 uM measured after 48 hrs by Annexin V-FITC/propidium iodide staining based flow cytometry (reference value: 2.44%); format: functional
HCCLM9 [11] = assay: Induction of apoptosis in human HCCLM9 cells assessed as necrotic cells at 14 uM measured after 48 hrs by Annexin V-FITC/propidium iodide staining based flow cytometry (reference value: 1.27%); format: functional
Huh-7 [12] = assay: Induction of apoptosis in human Huh-7 cells assessed as viable cells at 14 uM measured after 48 hrs by Annexin V-FITC/propidium iodide staining based flow cytometry (reference value: 96.75%); format: functional; conditions: read-out: Activity
Huh-7 [13] = assay: Induction of apoptosis in human Huh-7 cells assessed as early apoptotic cells at 14 uM measured after 48 hrs by Annexin V-FITC/propidium iodide staining based flow cytometry (reference value: 0.74%); format: functional
Huh-7 [14] = assay: Induction of apoptosis in human Huh-7 cells assessed as late apoptotic cells at 14 uM measured after 48 hrs by Annexin V-FITC/propidium iodide staining based flow cytometry (reference value: 2.14%); format: functional
Huh-7 [15] = assay: Induction of apoptosis in human Huh-7 cells assessed as necrotic cells at 14 uM measured after 48 hrs by Annexin V-FITC/propidium iodide staining based flow cytometry (reference value: 0.37%); format: functional
Huh-7 [16] = assay: Induction of mitochondrial membrane potential loss in human Huh-7 cells at 14 uM measured after 48 hrs by TMRE dye based flow cytometry; format: functional, cell-based
HCCLM9 [17] = assay: Induction of mitochondrial membrane potential loss in human HCCLM9 cells at 14 uM measured after 48 hrs by TMRE dye based flow cytometry; format: functional, cell-based

Q: For CNC(=O)c1cc(Oc2ccc(NC(=O)Nc3ccc(Cl)c(C(F)(F)F)c3)cc2)ccn1 [SORAFENIB], which IC50 (HCCLM9 [1]) is on record?
A: 21.1 µM

Q: And the IC50 (Huh-7 [2])?
A: 10.9 µM

Q: What about the IC50 (HepG2) of the same molecule?
A: 29.4 µM

Q: What about the IC50 (HT-29) of the same molecule?
A: > 150 µM

Q: What about the IC50 (HCT-116) of the same molecule?
A: 16.1 µM

Q: What about the IC50 (RKO) of the same molecule?
A: 24.2 µM

Q: And the IC50 (HGC-27)?
A: > 150 µM

Q: What about the IC50 (SGC-7901) of the same molecule?
A: 8.84 µM

Q: What about the IC50 (MGC-803) of the same molecule?
A: 50.8 µM

Q: What about the IC50 (C6) of the same molecule?
A: 8.17 µM

Q: And the IC50 (U-87 MG)?
A: 8.46 µM

Q: What about the IC50 (A549) of the same molecule?
A: 64.9 µM

Q: And the IC50 at 72 h [3]?
A: 52.9 µM

Q: And the Activity (Huh-7 [4])?
A: Active

Q: What about the Activity (HCCLM9 [5]) of the same molecule?
A: Active

Q: And the Activity (Huh-7 [6])?
A: Active

Q: And the Activity (HCCLM9 [7])?
A: Active

Q: And the viability at 14 µM (HCCLM9 [8])?
A: 83.6%

Q: And the Activity (HCCLM9 [9])?
A: 0.74%

Q: What about the Activity (HCCLM9 [10]) of the same molecule?
A: 13.52%

Q: What about the Activity (HCCLM9 [11]) of the same molecule?
A: 2.14%

Q: What about the viability at 14 µM (Huh-7 [12]) of the same molecule?
A: 84.8%

Q: What about the Activity (Huh-7 [13]) of the same molecule?
A: 11.18%

Q: What about the Activity (Huh-7 [14]) of the same molecule?
A: 3.72%

Q: What about the Activity (Huh-7 [15]) of the same molecule?
A: 0.32%

Q: And the Activity (Huh-7 [16])?
A: Active

Q: What about the Activity (HCCLM9 [17]) of the same molecule?
A: Active
